The values below are quoted from earlier work in article PMC4447334 (Journal of the American Chemical Society, 2015).

Data set [1] deals with T1, PAD3 (Homo sapiens, UniProt Q9ULW8).
T1 sequence (Q9ULW8 1-664): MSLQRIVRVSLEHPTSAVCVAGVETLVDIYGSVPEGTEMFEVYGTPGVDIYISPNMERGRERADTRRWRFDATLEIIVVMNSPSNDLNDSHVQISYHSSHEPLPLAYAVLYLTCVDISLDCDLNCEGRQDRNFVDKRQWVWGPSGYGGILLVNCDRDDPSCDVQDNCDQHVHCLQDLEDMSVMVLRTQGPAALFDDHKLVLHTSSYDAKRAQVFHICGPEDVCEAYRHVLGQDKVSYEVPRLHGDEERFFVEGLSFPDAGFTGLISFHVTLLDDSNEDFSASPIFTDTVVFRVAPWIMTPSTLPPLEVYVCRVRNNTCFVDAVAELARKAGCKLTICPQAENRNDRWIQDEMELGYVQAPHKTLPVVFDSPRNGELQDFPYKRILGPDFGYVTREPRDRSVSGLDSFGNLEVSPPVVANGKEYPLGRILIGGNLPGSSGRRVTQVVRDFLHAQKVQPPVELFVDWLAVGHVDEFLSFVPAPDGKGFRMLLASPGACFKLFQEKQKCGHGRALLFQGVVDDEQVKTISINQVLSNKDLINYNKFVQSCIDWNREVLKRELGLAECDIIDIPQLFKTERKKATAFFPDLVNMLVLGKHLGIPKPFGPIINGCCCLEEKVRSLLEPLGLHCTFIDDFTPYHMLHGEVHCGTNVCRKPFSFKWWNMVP
As to conditions: exact value reported.

Data set [2] has as its target T2, PAD1 (Homo sapiens, UniProt Q9ULC6).
T2 sequence (Q9ULC6 1-663): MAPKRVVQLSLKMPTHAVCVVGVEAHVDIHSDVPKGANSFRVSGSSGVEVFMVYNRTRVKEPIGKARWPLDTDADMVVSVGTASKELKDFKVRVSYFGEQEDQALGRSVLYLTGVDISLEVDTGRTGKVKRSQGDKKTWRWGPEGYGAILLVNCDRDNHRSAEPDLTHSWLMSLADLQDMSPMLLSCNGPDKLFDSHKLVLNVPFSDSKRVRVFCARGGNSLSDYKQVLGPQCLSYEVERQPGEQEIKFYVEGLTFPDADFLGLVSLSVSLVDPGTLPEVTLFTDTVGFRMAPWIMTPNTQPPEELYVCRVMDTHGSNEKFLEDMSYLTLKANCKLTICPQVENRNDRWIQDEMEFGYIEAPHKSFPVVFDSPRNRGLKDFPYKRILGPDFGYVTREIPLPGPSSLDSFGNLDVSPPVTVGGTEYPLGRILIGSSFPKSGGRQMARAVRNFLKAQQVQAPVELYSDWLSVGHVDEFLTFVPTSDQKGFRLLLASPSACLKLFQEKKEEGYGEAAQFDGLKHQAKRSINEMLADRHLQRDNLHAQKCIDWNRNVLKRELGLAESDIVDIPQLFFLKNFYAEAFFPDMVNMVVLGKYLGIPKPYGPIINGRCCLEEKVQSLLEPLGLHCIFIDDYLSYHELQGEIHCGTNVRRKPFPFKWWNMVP
To be noted: approximate, from chart in Figure 6A.

Data set [3] addresses PAD4 (Homo sapiens, UniProt Q9UM07). As to conditions: approximate, from chart in Figure 6A.

PAD4, sequence (Q9UM07 whole entry): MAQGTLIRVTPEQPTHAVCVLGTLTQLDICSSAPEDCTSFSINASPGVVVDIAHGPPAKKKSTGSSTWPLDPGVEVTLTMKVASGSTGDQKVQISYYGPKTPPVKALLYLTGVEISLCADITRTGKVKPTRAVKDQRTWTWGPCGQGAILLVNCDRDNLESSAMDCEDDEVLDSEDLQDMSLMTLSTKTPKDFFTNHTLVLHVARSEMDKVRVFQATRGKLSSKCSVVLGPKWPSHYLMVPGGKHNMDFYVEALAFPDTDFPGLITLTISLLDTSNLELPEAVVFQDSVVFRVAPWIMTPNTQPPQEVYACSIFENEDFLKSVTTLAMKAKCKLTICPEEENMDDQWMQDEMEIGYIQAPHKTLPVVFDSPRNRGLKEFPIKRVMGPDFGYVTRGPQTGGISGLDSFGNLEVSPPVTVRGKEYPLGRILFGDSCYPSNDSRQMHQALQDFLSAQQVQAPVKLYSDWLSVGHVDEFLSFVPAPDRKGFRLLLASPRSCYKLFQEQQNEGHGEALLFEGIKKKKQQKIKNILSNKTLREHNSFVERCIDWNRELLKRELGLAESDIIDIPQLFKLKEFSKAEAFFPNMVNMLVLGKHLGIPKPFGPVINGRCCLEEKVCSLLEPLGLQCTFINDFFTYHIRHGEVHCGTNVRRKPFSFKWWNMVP

On to `N=C(CF)NCCCC[C@H](NC(=O)c1ccccc1)C(N)=O` [F4-amidine], for which the results for the IC50 in data set [1], in data set [2] and in data set [3] were 65 µM, around 250 µM and around 625 µM, respectively.
